Reference: patent US20180092908A1, “SMALL MOLECULE OXIDIZERS OF PDI AND THEIR USE” (THE TRUSTEES OF COLUMBIA UNIVERSITY IN THE CITY OF NEW YORK, priority 2015, published 2018)
pEC50, pKd: −log10 of the molar value. Where two headings read alike, the source gives them in different places.

Tests used:
[1] = molecular target: T1, human catalytic PDI A1 a domain (PDIa) (Homo sapiens, UniProt P07237); experiment: Isothermal titration calorimetry (ITC) binding to PDIa
T1 construct: made in house; host or cells: Escherichia coli BL21-Gold (DE3)
T1 sequence (P07237 with tags, fused parts or gaps): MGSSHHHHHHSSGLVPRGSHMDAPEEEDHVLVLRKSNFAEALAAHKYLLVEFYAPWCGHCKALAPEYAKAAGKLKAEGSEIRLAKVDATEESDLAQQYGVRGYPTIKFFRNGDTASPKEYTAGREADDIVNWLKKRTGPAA
Procedure: All ITC experiments were carried out at 25° C. on MicoCal Auto-ITC200 system (GE Healthcare). Reduced PDIa was dialyzed into ITC buffer (20 mM sodium phosphate buffer pH 7.8) and loaded into a sample cell at 40 μM concentration. The compound solution was loaded into a syringe at 400 μM in the same ITC buffer with a final DMSO concentration at 0.4% (v/v). ITC titration experiments were carried out at 25° C. with 19 injections, 2 μl per injection, and 180 seconds between each injection. The reference cell power was set to 5 μcal/sec. A control experiment was performed for each compound, where each compound was titrated into buffer to account for heat released due to dilution. This background was subtracted from test data before a final dissociation constant was obtained. Data were analyzed using a one-site binding model in Origin 7.1 software. […] Gibbs free energy, ΔG, was calculated from equation ΔG=ΔH−TΔS. All other parameters, Ka, n, ΔH, ΔS, were determined directly from the titration data.
For ITC experiments with 16F16 pre-treatment, 40 μM PDIa (after dialysis into ITC buffer) was treated with 200 μM 16F16 for 12-15 hours at 4° C. Next day the whole solution was loaded into the sample cell. LOC14 at 400 μM in ITC buffer was loaded into syringe and titrated into PDIa+16F16 loaded cell. For control experiments, ITC buffer with 200 μM 16F16 was used in the cell, while 400 μM LOC14 in ITC buffer was used in the syringe.
The binding mode of LOC14 to PDIa was next investigated using isothermal titration calorimetry (ITC). ITC measures the heat released or absorbed during a biomolecular interaction. It is a direct analytical method for determining the binding and thermodynamic parameters, such as reaction stoichiometry (n), binding constants (Ka and Kd), enthalpy (ΔH), entropy (ΔS), and free energy (ΔG) of an interaction.

[2] = system: PC12 mHTT^Q103 cells; experiment: Rescue of PC12 cells from mHTT^Q103 induced cell death (Alamar blue viability); type: cell-based; conditions: Table 5; for pEC50: Rattus norvegicus, PC-12, read-out: Cell Viability Assay EC50
From the text: PC12 mHTT^Q103 cells were a gift from Erik S. Schweitzer (UCLA School of Medicine, Los Angeles, Calif.). These cells are stably transfected with the first exon of human HTT gene containing the pathogenic 103 CAG/CAA repeat expansion, under the control of the ecdysteroid promoter (Aiken et al., 2004). The plasmid also contains a Bombyx mori ecdysone receptor gene fused at N-terminal with VP16 transactivation domain (Suhr et al., 1998; Vilaboa et al., 2011). Addition of the ecdysone analog, tebufenozide, to the cell culture medium is used to initiate the transcription of mutant HTT (Aiken et al., 2004).
PC12 mHTT^Q103 cells were cultured in DMEM containing 4.5 g/I glucose, 25 mM HEPES, sodium pyruvate, and no L-glutamine (Mediatech, cat. no. 15-018-CV), supplemented with 10% (v/v) Cosmic Calf serum, 2 mM L-glutamine, 100 units/mL of penicillin-streptomycin, and 0.5 mg/ml active geneticin. Cells were grown at 37° C., 9.5% CO2, and the medium was replaced with fresh medium every 2-3 days. To induce mHTT^Q103 expression for experiments, tebufenozide, a gift from Lynne Moore and Fred H. Gage (The Salk Institute for Biological Studies, La Jolla, Calif.), was added to the medium at 200 nM final concentration from 1 mM stock in 85% ethanol.
LOC mother plates with compounds at 4 mg/ml were thawed and spun down (1000 rpm, 20° C., 1 min) prior to use. Biomek FX (Beckman Coulter) robotic liquid dispenser was used to handle all liquid transferring and mixing. […] Two fold serial dilution was performed across five daughter plates by transferring 50 μl of compounds (at […]) from the D1 plate into 50 μl of PC12 medium in daughter plate D2, mixing, and then repeating the process for the remaining three plates. Daughter plate D1 with compounds at […], daughter plate D3 with compounds at 20 μl/ml and daughter plate D5 with compounds at 5 μl/ml were then used for the screen. Assay plates were set up by seeding tebufenozide-induced PC12 mHTT^Q103 cells into 384-well black, clear-bottom plates (Corning Inc. cat. no. 3712) at a density of 7,500 cells per well in 57 μl PC12 medium without geneticin. Three microliters of compound from the daughter plates (D1, D3, and D5) were added to the assay plates for a final compound concentration of 4 μl/ml, 1 μl/ml, and 0.25 μl/ml. Four wells containing uninduced PC12 mHTT^Q103 cells and four wells containing medium only, were also included on each plate as controls. The assay plates were incubated at 37° C., 9.5% CO2 for 48 hours. Twenty microliters of 40% Alamar blue (Life Technologies cat. no. DAL1100) solution in PC12 medium was added to each well (1:10 final dilution) and the plates were incubated for an additional 12-24 hours at 37° C., 9.5% CO2. Alamar blue fluorescence was read on a fluorescence plate reader (PerkinElmer Victor3) with 530 nm excitation filter and 590 nm emission filter. Each compound concentration was tested in triplicate.
The follow-up testing of primary screen hits was performed in a similar way. Fresh powder stocks of primary hits were re-ordered from vendors, dissolved in DMSO and tested in a two-fold serial dilution across 10 wells in both tebufenozide-induced and uninduced PC12 mHTT^Q103 cells. Dose-response curves were plotted as mean±SD and fit to either four-parameter sigmoidal (for uninduced cells) or bell-shaped (induced) function using Prism (GraphPad Software).
A cascade of two assays was used, involving both a phenotypic high-throughput screening (HTS) assay and an in vitro PDI reductase assay, to identify neuroprotective PDI-inhibiting compounds. […] Alamar blue was used as a fluorescent readout for viability after 48 hours of compound treatment and mHTT^Q103 induction. […] All the candidate hit compounds were re-tested in a two-fold dilution series.

[3] = molecular target: T2, recombinant catalytic a domain of human PDI A1 (PDIa) (Homo sapiens, UniProt P07237); experiment: Insulin aggregation assay (PDIa reductase activity); type: biochemical; conditions: Table 5
T2 construct: made in house; host or cells: Escherichia coli BL21-Gold (DE3)
T2 sequence (P07237 with tags, fused parts or gaps): as above
From the text: In this insulin aggregation assay (Xu et al., 2012; Jasuja et al., 2012; Khan et al., 2011; Smith et al., 2004), PDIa reduced the two disulfide bonds between the α- and β-chains of insulin, causing the β-chain to aggregate and precipitate, resulting in an increase in absorbance at 650 nm.
To investigate the mode of binding further and to determine whether the binding was reversible or irreversible, the recovery of enzymatic activity of PDIa after dilution of pre-formed concentrated PDIa-LOC14 complexes was analyzed. LOC14 (750 μM) was incubated with a concentrated solution of PDIa (500 μM). The mixture was then diluted 100-fold and PDI's enzymatic activity was measured in the insulin reduction assay. As a control, the same procedure was also performed on the sample containing an irreversible inhibitor, 16F16 (16F16 at 750 μM and PDIa at 500 μM). […] This illustrated that unlike 16F16, LOC14 binding to PDIa is reversible.

[4] = PDIa, Table 5, read-out: ITC Assay KD

Row | SMILES | ITC Assay KD ([1]; PDIa, Table 5) | Insulin Assay (either active or inactive) [3] | pEC50 [2] | also measured
1 | O=c1[nH]sc2ccccc12 [BIT fragment, 1,2,Benzisothiazol-3-one] | – | – | – | pKd ([1]; PDIa, Table 4, read-out: ITC KD): 6.85
2 | O=C(c1ccccc1)n1sc2ccccc2c1=O [LC-11] | KD = N/A irreversible or not | not active | < 4.30 | –
3 | O=c1c2ccccc2sn1CN1CCOCC1 [LC-18] | – | Active | 6.26 | pKd [1, 4]: 6.60
4 | O=C(NCc1ccc(Br)cc1)c1ccccc1S [LC-20] | KD = N/A irreversible or not active | not active t | < 4.30 | –
5 | O=C(Nc1ccc(N2CCOCC2)cc1)c1ccccc1S [LC-21] | KD = N/A irreversible or not active | not active | 6.16 | –
6 | O=c1c2ccccc2sn1CN1CCN(Cc2ccccc2)CC1 [LC-22] | – | Active | 6.51 | pKd [1, 4]: 6.76
7 | O=C(Nc1ccc(Cc2ccccc2)cc1)c1ccccc1S [LC-23] | KD = N/A irreversible or not active | not active | 5.41 | –
8 | O=c1c2ccccc2sn1-c1ccc(Cc2ccccc2)cc1 [LC-25] | KD = N/A irreversible or not active | not active | 5.80 | –
9 | O=c1c2ccccc2sn1Cc1ccc(Br)cc1 [LC-26] | KD = N/A irreversible or not active | not active | 6.11 | –
10 | C[C@@H](NC(=O)c1ccccc1S)c1ccccc1 [LC-28] | KD = N/A irreversible or not active | not active | 6.09 | –
11 | C[C@H](c1ccccc1)n1sc2ccccc2c1=O [LC-29] | – | Active | 6.29 | pKd [1, 4]: 6.18
12 | O=C(Nc1cccc(F)c1)c1ccccc1S [LC-30] | KD = N/A irreversible or not active | not active | 5.52 | –
13 | O=c1c2ccccc2sn1-c1cccc(F)c1 [LC-31] | KD = N/A irreversible or not | not active | 5.75 | –
14 | COCCn1sc2ccccc2c1=O [LC-32] | – | Active | 6.15 | pKd [1, 4]: 6.80
15 | O=C(Nc1ccc(Oc2ccccc2)cc1)c1ccccc1S [LC-33] | KD = N/A irreversible or not active | not active | 5.53 | –
16 | Cc1ccc(NC(=O)c2ccccc2S)c(Br)c1 [LC-34] | KD = N/A irreversible or not active | not active | 5.42 | –
17 | Cn1sccc1=O [LC-35] | KD = N/A irreversible or not active | Active | – | Cell Viability Assay EC50 [2]: Not Active
18 | Cc1ccc(-n2sc3ccccc3c2=O)c(Br)c1 [LC-36] | – | not active | 5.80 | pKd [1, 4]: 7.60
19 | O=c1c2ccccc2sn1-c1ccc(Oc2ccccc2)cc1 [LC-37] | KD = N/A irreversible or not active | not active | 5.77 | –
20 | O=c1[nH]sc2c(Cl)cccc12 [LC-38] | KD = N/A irreversible or not active | not active | – | –
21 | O=C(C1CC1)N1CCN(Cn2sc3c(Cl)cccc3c2=O)CC1 [LC-39] | KD = N/A irreversible or not active | not active | – | –
22 | O=c1[nH]sc2c(F)cccc12 [LC-40] | KD = N/A irreversible or not active | Active | 5.03 | –
23 | O=c1[nH]sc2c(C(F)(F)F)cccc12 [LC-41] | KD = N/A irreversible or not active | not active | – | –
24 | O=C(C1CC1)N1CCN(Cn2oc3ccccc3c2=O)CC1 [Oxy-LOC14, 2-((4-(cyclopropanecarbonyl)piperazin-1-yl)methyl)benzo[d]isoxazol-3(2H)-one] | – | – | – | loss in binding affinity compared to LOC14 ([1]; ITC, PDIa): 35 fold; pKd ([1]; reduced PDIa 40 μM, compound 400 μM, 25° C., read-out: dissociation constant (Kd)): 5.61

Further lines, with some results ahead:

Row | ITC Assay KD ([1]; PDIa, Table 5) | Insulin Assay (either active or inactive) [3] | SMILES | pEC50 [2] | also measured
25 | KD = N/A irreversible or not active | not active | O=C(C1CC1)N1CCN(Cn2sc3c(C(F)(F)F)cccc3c2=O)CC1 [LC-42] | – | –
26 | KD = N/A irreversible or not active | not active | NC(=O)c1cccc(C(F)(F)F)c1SSc1c(C(N)=O)cccc1C(F)(F)F [LC-45] | – | –
27 | – | not active | O=c1ssc2ccccc12 [LC-48] | – | –
28 | – | not active | S=c1ssc2ccccc12 [LC-49] | – | –
29 | – | Active | O=c1c2cccnc2sn1CCN1CCCCC1 [LC-54] | – | –
30 | – | Active | O=c1c2cccnc2sn1CCN1CCOCC1 [LC-55] | – | –
31 | – | Active | O=c1c2cccnc2sn1CCC1CCNCC1 [LC-56] | – | –
32 | – | Active | Cc1nnc2s[nH]c(=O)c2c1C [LC-57] | 4.92 | –
33 | – | Active | C[C@H](c1ccccc1)n1sc2ncccc2c1=O [LC-58] | – | –
